Data as given in patent US11214564B2, “Compounds with thymine skeleton for use in medicine” (TECHNISCHE UNIVERSITÄT DRESDEN, priority 2019, dated 2022).

How the values were obtained:
[1] = tested on: 2950-K9 mouse colon carcinoma cells; assay: Chemoresistance assay, 2950-K9 cells with 5-Fluorouracil; format: cell-based; settings: rising 5-FU 12-20 nM; BVDU 30 μM, compounds 1 μM or lower; FIG. 1b
Text: (§1) In a chemoresistance assay, a HSP27 dependent resistance to a cytostatic drug is induced in cultured cells by slowly increasing the dose of the cytostatic over several cell passages. This approach is valid for multiple cell types and cytostatic drugs and allowed us to test compounds according to the invention for their ability to inhibit HSP27 and reestablish susceptibility of the resistant cells to the cancer drug.
(§2) The addition of HSP27 inhibitors prevents development of chemoresistance and reestablishes the killing effect of Bortezomib. Cell numbers are determined at the end of the final passage to compare their growth rates.
(§3) As a reference compound, BVDU was tested at a concentration of 30 μM as previously described (Heinrich et al. (2016)). The compounds according to the invention were tested at a concentration of 1 μM or lower (see below). Test compounds were added at the start of the experiment and again after each passage and their concentrations remained unchanged throughout. […] The appropriate non-toxic dose of the test compound was determined in a dose-finding experiment beforehand.
FIG. 1b: Results of chemoresistance assay showing the resensitization of chemoresistant 2950-K9 mouse colon carcinoma cells to the drug 5-Fluorouracil (5-FU) after treatment with test compounds. 2950-K9 cells (100,000) were seeded and cultured in the presence of rising concentrations of 5-FU (12-20 nM) and HSP27 inhibitor, and passaged every 4-7 days. Cell counts were taken after the last passage at the highest concentration of 5-FU and relative cell number determined. Test compounds were BVDU, and Compound 5, Compound 12 and Compound 4, according to the invention.

[2] = tested on: RPMI 8226 multiple myeloma cells; assay: Chemoresistance assay, RPMI 8226 cells with Bortezomib; format: cell-based, human; settings: for resensitization of chemoresistant RPMI 8226 multiple myeloma cells to Bortezomib (relative cell number): rising Bortezomib 0.5-1 nM or 0.75-1.3 nM, BVDU 30 μM, compounds 1 μM or lower, FIG. 1a
Text: as §1
RPM-8226 cells, a human multiple myeloma cell line, were obtained from DSMZ (Leibniz Institute DSMZ-German Collection of Microorganisms and Cell Cultures). Cells were grown in RPMI 1640 medium (FG 1235; Biochrom AG, Berlin, Germany) supplemented with 10% (v/v) heat-inactivated fetal bovine serum in a humidified atmosphere containing 5% CO2 at 37° C. Logarithmically growing cells were seeded at a density of 100,000 cells/ml and incubated with Bortezomib (Velcade) in combination with or without test compounds. Cells were periodically counted using C-Chip Neubauer-improved counting chambers (Peqlab) and serially passaged. Cells were maintained below 1,000,000 cells/ml and typically passaged when the cell count reached 800,000 cells/ml. The starting dose of Bortezomib was typically 0.1 ng/ml and the concentration of Bortezomib was increased with each passage, e.g.: 1st passage, 0.1 ng/ml Bortezomib, 2nd passage 0.2 ng/ml Bortezomib, 3rd passage 0.3 ng/ml Bortezomib, etc.
Over 3-4 passages with increasing concentration of Bortezomib, cells begin to show resistance and finally grow at the same rate as untreated cells.
as §2, §3
FIG. 1a: Results of chemoresistance assay showing the resensitization of chemoresistant RPMI 8226 multiple myeloma cells to Bortezomib after treatment with test compounds. RPMI-8226 cells (100,000) were seeded and cultured in the presence of rising concentrations of Bortezomib (0.5-1 nM or 0.75-1.3 nM) and HSP27 inhibitor, and passaged every 4-7 days. Cell counts were taken after the last passage at the highest concentration of Bortezomib and relative cell number determined. Test compounds were BVDU, and Compound 12 and Compound 4, according to the invention.

[3] = target: HSP27 (Homo sapiens, UniProt P04792); assay: Aggregation assay: HSP27 chaperone activity on heat-induced aggregation of citrate synthase; format: biochemical; settings: compound 10 μM; 1.44 μM CS, 481 nM HSP27, 43° C., 500 nm
Experimental: To test how small molecules affect the chaperone activity of HSP27, misfolding and aggregation of citrate synthase (CS), a well-known in vitro client protein of HSP27, was measured. Citrate synthase misfolds and aggregates when exposed to heat shock at 43° C. This heat denaturation is prevented or delayed in the presence of HSP27 (CS+HSP27) (Jakob et al. (1993)). […] The samples were incubated at 43° C. and the aggregation behavior of CS was monitored in a spectrometer (PerkinElmer LS55) at a wavelength of 500 nm. Substances inhibiting HSP27's chaperone activity lead to continued denaturation of the client protein and its aggregation in solution. This inhibition correlates with the strength of the interaction between HSP27 and the test substance, which is related to its binding efficiency.
In the reference experiment BVDU (CS+HSP27+BVDU) was tested at a concentration of 750 μM as previously described (Heinrich et al. (2016)).
The compounds according to the invention were tested at a concentration of 10 μM.

Chain of HSP27 (P04792 whole entry): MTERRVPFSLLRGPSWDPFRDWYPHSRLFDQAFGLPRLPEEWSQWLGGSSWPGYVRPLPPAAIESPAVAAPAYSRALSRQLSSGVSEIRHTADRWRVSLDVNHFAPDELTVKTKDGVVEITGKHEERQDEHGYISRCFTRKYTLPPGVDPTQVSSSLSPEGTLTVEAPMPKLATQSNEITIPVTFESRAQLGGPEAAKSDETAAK

For `O=c1[nH]c(=O)n([C@H]2C[C@H](O)[C@@H](CO)O2)cc1/C=C/Br` [BVDU, (E)-5-(2-bromovinyl)-2′-deoxyuridine, reference compound], the “resensitization of chemoresistant 2950-K9 mouse colon carcinoma cells to 5-Fluorouracil (relative cell number)” value [1] was “resensitization”, the “influence on cell growth of compound alone (control without cytostatic)” value ([2]; cells treated with only BVDU (30 μM) or test compound (1 μM or lower)) was “did not influence cell growth” and the “resensitization of chemoresistant RPMI 8226 multiple myeloma cells to Bortezomib (relative cell number)” value [2] was “resensitization”.

With `O=C(Cc1cccc(-c2ccc(Cl)c(Cl)c2)c1)Nc1ccc(-n2ccc(=O)[nH]c2=O)cc1` [Compound 4, 2-(3′,4′-dichloro-[1,1′-biphenyl]-3-yl)-N-(4-(2,4-dioxo-3,4-dihydro-pyrimidin-1(2H)-yl)phenyl) acetamide] the “aggregation value related to the value from reference experiment (CS + HSP27 + BVDU), which was set at 1.0” value (“aggregation value related to the value” below) [3] was 1.39, the “resensitization of chemoresistant 2950-K9 mouse colon carcinoma cells to 5-Fluorouracil (relative cell number)” value [1] was “resensitization” and the “resensitization of chemoresistant RPMI 8226 multiple myeloma cells to Bortezomib (relative cell number)” value [2] was “resensitization”.

In the case of `O=C(Cc1cccc(-c2ccc(Cl)cc2Cl)c1)Nc1ccc(-n2ccc(=O)[nH]c2=O)cc1` [Compound 5, 2-(2′,4′-dichloro-[1,1′-biphenyl]-3-yl)-N-(4-(2,4-dioxo-3,4-dihydro-pyrimidin-1(2H)-yl)phenyl) acetamide], the “aggregation value related to the value” value [3] was 1.39 and the “resensitization of chemoresistant 2950-K9 mouse colon carcinoma cells to 5-Fluorouracil (relative cell number)” value [1] was “resensitization”.

With `O=C(Cc1cccc(-c2ccc(Cl)c(Cl)c2)c1)Nc1ccc(-n2cc(F)c(=O)[nH]c2=O)cc1` [Compound 12, 2-(3′,4′-dichloro-[1,1′-biphenyl]-3-yl)-N-(4-(5-fluoro-2,4-dioxo-3,4-dihydro-pyrimidin-1(2H)-yl)phenyl) acetamide] the “aggregation value related to the value” value [3] was 1.57, the “resensitization of chemoresistant 2950-K9 mouse colon carcinoma cells to 5-Fluorouracil (relative cell number)” value [1] was “resensitization” and the “resensitization of chemoresistant RPMI 8226 multiple myeloma cells to Bortezomib (relative cell number)” value [2] was “resensitization”.
